This is an account of results in patent US6670378B2, “Method of treating Parkinson's disease” (Pharmacia & Upjohn Company, priority 2001, dated 2003).

Data set [1] concerns 6-OH-dopamine lesioned rats. As to the kind of experiment: L-DOPA induced behavioral sensitization (contralateral rotations) in unilaterally 6-OH-dopamine lesioned rats. The format is in vivo, Male Sprague-Dawley rats. As for the experimental part:
Repeated administration of dopamine agonists to 6-OH-dopamine lesioned rats results in behavioral sensitization or enhanced rotational behavior in the rats. This effect is believed to mirror the development of motor complications including L-DOPA induced involuntary movements such as dyskinesias in Parkinson's Disease patients.
Male Sprague-Dawley rats having lesion surgery were provided. […] The rats were anesthetized with 60 mg/kg i.p. sodium pentobarbital and then placed in a stereotaxic apparatus. A small hole was drilled through the skull of the rats and a 30-gauge stainless tubing was lowered to the right (one study) or left (two studies) medial forebrain bundle. 8 μg/4 μL (8μ free base) of 6-OH-dopamine solution was injected into the medial forebrain bundle at a rate of 1 μL/min. Following surgery, the incision was closed with clips and ointment containing a local anesthetic/antibiotic was applied to the incision area. The rats were returned to their home cages and allowed one week to recover from surgery.
The rats were group housed in wire mesh hanging cages with free access to food and water and kept on 12-hour light:12-hour dark cycles with the light being on from 6:00 a.m. to 6:00 p.m. All behavioral testing was done between 9:00 a.m. to 6:00 p.m.
Two to three weeks after the surgery, the rats were screened to assess the degree of lesion by measuring their net turning response to a single dose of 0.1 mg/kg s.c. of apomorphine HCl in 0.9% saline. The total turns were recorded in discrete 10 minute intervals. Each rat was connected by a lightweight harness and tether to a rotometer comprising a swivel with a mechanical counter at the top of a clear plastic cylindrical cage. The rats were used for the experiments if they had at least 30 contralateral turns in 10 minutes, with contralateral being away from the side of the lesion. In addition to screening out incomplete lesions, the response to apomorphine was used to separate the rats into balanced treatment groups, prior to the start of chronic dosing. The rats were ranked by cumulative net turning response and an equal number of high and low responders were placed in each treatment group.
All of the injections were given in a volume of 2 ml/kg and, with the exception of L-DOPA+benserazide 15+5 mg/kg, i.p., all injections were subcutaneous. All chronic treatment was given bid, 6-8 hours apart. […] S-(−)-3-[3-(methylsulfonyl)phenyl]-1-propyl-piperidine was dissolved in 0.9% sterile saline and administered at either 10 or 30 mg/kg subcutaneously 20 minutes before L-DOPA or together with the L-DOPA. The basal turning measurement started immediately after the rats received the first injections on day 1 with the activity being measured for 4-6 hours after dosing. The turning activity was measured again on days 7 and 14 and compared to the activity on day 1. […] Analysis of variance was used for statistical calculations and probability levels of <0.05 was regarded as being statistically significant.

A short description of data set [2]: Plasma/blood levels of the piperidine derivative and its N-dealkylated metabolite after two weeks of chronic dosing (HPLC-MS/MS). It is filed as in vivo, Male Sprague-Dawley rats. The note with it: plasma one hour after evening dose.
Procedure: In order to perform the brain monoamine neurochemistry analysis, the brains were harvested following 14 days of chronic drug treatment. This was performed by decapitating the rats one hour after the evening drug administration, collecting the trunk blood into EDTA-treated tubes, immediately removing the brains, freezing the brains in small aluminum pans on dry ice and then storing at −80° C. […] Blood was spun and plasma was frozen at −80° C. for analysis of S-(−)-3-[3-(methylsulfonyl) phenyl]-1-propyl-piperidine and its major N-dealkylated metabolite. Plasma concentrations of S-(−)-3-[3-(methylsulfonyl)phenyl]-1-propyl-piperidine and its despropyl metabolite were quantitated using on-line high performance liquid chromatography (HPLC) tandem mass spectroscopy (MS/MS) with an atmospheric pressure chemical ionization (APCI) interface. […] S-(−)-3-[3-(methylsulfonyl)phenyl]-1-propyl-piperidine (0.1 μg/mL, 25 μL) were quantitatively added to 100 μL of plasma sample. […] The linear range of the calibration curve calculated in plasma was 0.02 nmol/mL to 40 nmol/mL for S-(−)-3-[3-(methylsulfonyl) phenyl]-1-propyl-piperidine and 00.01 nmol/mL to 20 nmol/mL for its N-dealkylated metabolite. […] Product ions with m/z 173 were monitored following CID of the protonated stable isotope (m/z 286). […] Study sample concentrations were calculated by reference to this equation.
The nature of data set [3]: Post mortem brain (prefrontal cortex) levels of L-DOPA after 14 days of chronic treatment. The note with it: L-DOPA alone vs L-DOPA combined with the piperidine derivative.
Procedure: In order to perform the brain monoamine neurochemistry analysis, the brains were harvested following 14 days of chronic drug treatment. This was performed by decapitating the rats one hour after the evening drug administration, collecting the trunk blood into EDTA-treated tubes, immediately removing the brains, freezing the brains in small aluminum pans on dry ice and then storing at −80° C. Brain levels of L-DOPA and dopamine were analyzed by means of liquid chromatography and electrochemical detection according to standard methodology described in the literature.
After two weeks of the administering of the L-DOPA and benserazide, tissues were taken post-mortem from the unilateral striatum and prefrontal cortex and analyzed for monoamines and their metabolite levels.
The test system of data set [4] is rotational behavior induced by apomorphine, L-DOPA and quinpirole. The note with it: in vivo; cited from earlier work.
Data set [5] relates to unilaterally dopamine-lesioned monkeys. Conditions: cited from earlier work.

For `N[C@@H](Cc1ccc(O)c(O)c1)C(=O)O` [L-DOPA, reference compound], the “rotational behavior in animals with unilateral lesions of the nigro-striatal dopamine neurons” value in data set [1] (L-DOPA+benserazide 15+5 mg/kg i.p.) is listed as “induces rotational behavior”. In addition, in data set [1] (L-DOPA+benserazide 15+5 mg/kg i.p. bid, two separate experiments), the “behavioral sensitization, measured as enhanced number of contralateral rotations” value was “repeatedly exhibited”.

Take `CS(=O)(=O)c1cccc([C@@H]2CCCNC2)c1` [N-dealkylated metabolite]: in data set [2], the “effect of chronic treatment with L-DOPA on blood levels” value is “did not significantly effect”.

As to `CCCN1CCC[C@@H](c2cccc(S(C)(=O)=O)c2)C1` [S-(−)-3-[3-(methylsulfonyl)phenyl]-1-propyl-piperidine], in data set [3], the “effect of co-treatment on brain levels of L-DOPA” value is “did not appear to effect the brain levels of L-DOPA”. For the same compound, the “effect of chronic treatment with L-DOPA on blood levels” value in data set [2] is recorded as “did not significantly effect”. Besides, in data set [1] (10 or 30 mg/kg s.c. bid, 20 minutes before or together with L-DOPA+benserazide 15+5 mg/kg i.p., days 7 and 14 vs day 1), the “behavioral sensitization induced by L-DOPA (enhanced number of contralateral rotations)” value is “blocked by both doses”. Also, the “antagonism of basal rotational response induced by L-DOPA” value in data set [1] (10 or 30 mg/kg s.c. with L-DOPA+benserazide 15+5 mg/kg i.p., both experiments) was “in neither experiment did the piperidine derivative antagonize the basal rotational response”. For the same compound, in data set [1] (compound alone, s.c.), the “rotational behavior or akinesia induced by the compound by itself” value was “did not induce rotational behavior or akinesia by itself”. In addition, the “time course of antagonism of L-DOPA sensitization (simultaneous vs 20 minutes before L-DOPA)” value in data set [1] (given simultaneously with L-DOPA (FIG. 2) vs 20 minutes before (FIG. 1)) is on record as “most optimal antagonism occurred when the piperidine derivative was given simultaneously with L-DOPA”. Further, in data set [4], the “motor impairment such as akinesia or dystonia” value is on record as “without inducing motor impairment”; the “rotational behavior induced by apomorphine, L-DOPA and quinpirole” value is reported as “attenuated”. For the same compound, in data set [5], the “L-DOPA-induced contraversive turning behavior” value is on record as “attenuating”.
